A word on the Ki: it is a measure of affinity in units of concentration, obtained from inhibition or displacement. A low value points to tighter binding.

One assay concerns the target human α-thrombin (Homo sapiens (Human), UniProt P00734). The assay is described as follows: In vitro assay for determining proteinase inhibition (thrombin Ki). Format: biochemical.
Settings: not given
Here is the method:
NMR determinations were made using 400 MHz field strength. Ki data was obtained according to the procedure described in Lewis, et al. Thromb. […] Reactions sensitive to moisture or air were performed under nitrogen or argon using anhydrous solvents and reagents. […] Typically, the analytical LC-MS system used consisted of a Waters ZQ platform with electrospray ionization in positive ion detection mode with an Agilent 1100 series HPLC with autosampler. The column was usually a Water Xterra MS C18, 3.0×50 mm, 5 μm. The flow rate was 1 mL/min, and the injection volume was 10 μL. UV detection was in the range 210-400 nm. […] Preparative HPLC purifications were usually performed using a mass spectrometry directed system. […] The mobile phases consisted of mixtures of acetonitrile (10-100%) in water containing 0.1% TFA. Flow rates were maintained at 50 mL/min, the injection volume was 1800 μL, and the UV detection range was 210-400 nm. Mobile phase gradients were optimized for the individual compounds. Reactions performed using microwave irradiation were normally carried out using an Emrys Optimizer manufactured by Personal Chemistry, or an Initiator manufactured by Biotage. Concentration of solutions was carried out on a rotary evaporator under reduced pressure. Flash chromatography was usually performed using a Biotage Flash Chromatography apparatus (Dyax Corp.) on silica gel ([…], 60 Å pore size) in pre-packed cartridges of the size noted. ^1H NMR spectra were acquired at 500 MHz spectrometers in CDCl3 solutions unless otherwise noted. Chemical shifts were reported in parts per million (ppm). Tetramethylsilane (TMS) was used as internal reference in CD3Cl solutions, and residual CH3OH peak or TMS was used as internal reference in CD3OD solutions. Coupling constants (J) were reported in hertz (Hz). Chiral analytical chromatography was performed on one of Chiralpak AS, Chiralpak AD, Chiralcel OD, Chiralcel IA, or Chiralcel OJ columns (250×4.6 mm) (Daicel Chemical Industries, Ltd.) with noted percentage of either ethanol in hexane (% Et/Hex) or isopropanol in heptane (% IPA/Hep) as isocratic solvent systems. Chiral preparative chromatography was conducted on one of Chiralpak AS, Chiralpak AD, Chiralcel OD, Ciralcel IA, or Chiralcel OJ columns (20×250 mm) (Daicel Chemical Industries, Ltd.) with desired isocratic solvent systems identified on chiral analytical chromatography or by supercritical fluid (SFC) conditions. Celite® (Fluka) diatomite is diatomaceous earth, and can be referred to as “celite”.
Relevant in vitro assays are referenced in Morrissette, et al., Bioorg. […] The assays were carried out at 25° C. in 0.05 M TRIS buffer pH 7.4, 0.15 M NaCl, 0.1% PEG. Trypsin assays also contained 1 mM CaC12.
Concentrations of stock solutions of Z-GPR-afc were determined from measurements of absorbance at 380 nm of the 7-amino-4-trifluoromethyl coumarin produced upon complete hydrolysis of an aliquot of the stock solution by thrombin.
Activity assays were performed by diluting a stock solution of substrate at least tenfold to a final concentration ≦0.1 Km into a solution containing enzyme or enzyme equilibrated with inhibitor. Times required to achieve equilibration between enzyme and inhibitor were determined in control experiments. Initial velocities of product formation in the absence (Vo) or presence of inhibitor (Vi) were measured. Assuming competitive inhibition, and that unity is negligible compared Km/[S], [I]/e, and [I]/e (where [S], [I], and e respectively represent the total concentrations, of substrate, inhibitor and enzyme), the equilibrium constant (Ki) for dissociation of the inhibitor from the enzyme can be obtained from the dependence of Vo/Vi on [I] shown in the following equation.
`NCc1ccc(Cl)cc1CNC(=O)[C@@H]1CCCN1C(=O)C1CNc2ccccc21` (stereo partly drawn) [Compound 25-5, (2S)-N-{2-(Aminomethyl)-5-chlorobenzyl}-1-(indoline-3-carbonyl)pyrrolidine-2-carboxamide bis(2,2,2-trifluoroacetate)] returned a Ki of 59 nM. `NCc1ccc(Cl)cc1CNC(=O)[C@@H]1CCCN1C(=O)C1(O)CCc2ncccc21` (stereo partly drawn) [Compound 19-4, (2S)-N-{2-(Aminomethyl)-5-chlorobenzyl}-1-(5-hydroxy-6,7-dihydro-5H-cyclopenta[b]pyridine-5-carbonyl)pyrrolidine-2-carboxamide-2,2,2-trifluoroacetate] displayed a Ki of 49 nM.

The same assay, now with this note: 25° C., 0.05 M TRIS buffer pH 7.4, 0.15 M NaCl, 0.1% PEG; competitive inhibition assumed.
The compound `NCc1ccc(Cl)cc1CNC(=O)[C@@H]1CCCN1C(=O)c1cc(C(O)c2ccncc2)c[nH]1` (stereo partly drawn) [Compound 6-2, (2S)-N-{2-(Aminomethyl)-5-chlorobenzyl}-1-[4-{hydroxyl(pyridine-4-yl)methyl}-1H-pyrrole-2-carbonyl]pyrrolidine-2-carboxamide-bis(2,2,2-trifluoroacetate)] came in with a Ki of 21 nM. Regarding `NCc1ccc(Cl)cc1CNC(=O)[C@@H]1CCCN1C(=O)c1cc(-c2cccnc2)c[nH]1` [Compound 14-5, (S)—N-{2-(Aminomethyl)-5-chlorobenzyl}-1-{4-(pyridin-3-yl)-1H-pyrrole-2-carbonyl}pyrrolidine-2-carboxamide bis(2,2,2-trifluoroacetate)], the affinity corresponds to a Ki of 22 nM. The same measure, in the same setting: with `NCc1ccc(Cl)cc1CNC(=O)[C@@H]1CCN1C(=O)C1NCc2ccccc21` (stereo partly drawn) [Compound 34-7, (2S)-N-{2-(aminomethyl)-5-chlorobenzyl}-1-(isoindoline-1-carbonyl)azetidine-2-carboxamide bis(2,2,2-trifluoroacetate)] the figure was 2.5 nM; with `NCc1ccc(Cl)cc1CNC(=O)[C@@H]1CCCN1C(=O)C1(O)CCc2ccncc21` (stereo partly drawn) [Compound 28-6, (2S)-N-{2-(aminomethyl)-5-chlorobenzyl}-1-(7-hydroxy-6,7-dihydro-5H-cyclopenta[c]pyridine-7-carbonyl)pyrrolidine-2-carboxamide bis (2,2,2-trifluoroacetate)], 16 nM. `C[C@@]1(C(=O)NCc2cc(Cl)ccc2CN)CCCN1C(=O)[C@H]1CCC(=O)N1` [Compound 43, (S)-N-(2-(aminomethyl)-5-chlorobenzyl)-2-methyl-1-((R)-5-oxopyrrolidine-2-carbonyl)pyrrolidine-2-carboxamide]: the affinity, expressed as Ki, was 526 nM. The compound `CC(C)(C)[C@@H](O)C(=O)N1CCC[C@H]1C(=O)NCc1cc(Cl)ccc1CO` [Compound 17-5, (S)—N-{5-Chloro-2-(hydroxymethyl)benzyl}-1-{(R)-2-hydroxy-3,3-dimethylbutanoyl}pyrrolidine-2-carboxamide] yielded a Ki of 3500 nM.

With `NCc1ccc(Cl)cc1CNC(=O)[C@@H]1CCCN1C(=O)C1(O)CCCc2cnccc21` (stereo partly drawn) [Compound 31-7, (2S)-N-{2-(Aminomethyl)-5-chlorobenzyl}-1-(5-hydroxy-5,6,7,8-tetrahydroisoquinoline-5-carbonyl)pyrrolidine-2-carboxamide bis(2,2,2-trifluoroacetate)], affinity was put at a Ki of 4.8 nM. `NCc1ccc(Cl)cc1CNC(=O)[C@@H]1CCCN1C(=O)C1c2ccccc2CS1(=O)=O` (stereo partly drawn) [Compound 22-10, (2S)-N-{2-(Aminomethyl)-5-chlorobenzyl}-1-(2,2-dioxido-1,3-dihydrobenzo[a]thiophene-1-carbonyl)pyrrolidine-2-carboxamide-2,2,2-trifluoroacetate-2,2,2-trifluoroacetate] gave a Ki of 400 nM. Consider `CC(C)(C)[C@@H](CCO)C(=O)N1CCC[C@H]1C(=O)NCc1cc(Cl)ccc1CN` [Compound 1-12, (S)—N-[2-(Aminomethyl)-5-chlorobenzyl]-1-[(R)-2-(2-hydroxyethyl)-3,3-dimethylbutanoyl]pyrrolidine-2-carboxamide-2,2,2-trifluoroacetate], for which the Ki was found to be 25 nM. On the same count and under the same terms, for `NCc1ccc(Cl)cc1CNC(=O)[C@@H]1CCCN1C(=O)c1cc(C(O)c2ccccn2)c[nH]1` (stereo partly drawn) [Compound 11-2, (2S)-N-{2-(Aminomethyl)-5-chlorobenzyl}-1-[4-{hydroxyl(pyridine-2-yl)methyl}-1H-pyrrole-2-carbonyl]pyrrolidine-2-carboxamide] the value was 9.7 nM.

Values taken from patent US9469608B2, “Thrombin inhibitors” (Merck Sharp & Dohme Corp., priority 2012, dated 2016).
